Earlier results on four compounds are cited in US20110256072A1, “FOOD AND COMPOSITION EACH COMPRISING PHOSPHORYLATED SACCHARIDE, POLYPHENOL AND FLUORIDE” (EZAKI GLICO CO., LTD., priority 2008, published 2011).

“And” between values parts separate entries of the source, which are not always exact repeats. Equal values may be shown once. Read-outs that look alike come from different tables or passages of the source.

The test system of this series is dental caries.

For the compound `[F-].[Na+]` [2% Sodium fluoride solution, Sodium fluoride], the Inhibition rate (in vivo) is given as 20-40%.
As to `[F-].[Na+]` [NaF: 0.05% every day method, NaF], the Inhibition rate (Fluoride mouth washing method, 226 ppm, Permanent tooth) is listed as 20-50%.
In the case of `[F][Sn][F]` [SnF2: 8% Solution, SnF2], under “Local application to dental surface, 19,400 ppm, Permanent tooth”, the Inhibition rate is listed as 20-50%.
For `[F-].[Na+]` [Sodium fluoride], the Inhibition rate (in vivo) was 25-50% and 20-40% and ~30%.
